Results reported in patent US20080261932A1, “METHODS AND COMPOSITIONS FOR THE PREVENTION AND/OR TREATMENT OF AN EX[…] ASTHMA” (Chiesi Farmaceutici S.p.A., priority 2007, published 2008).

Assay: Tolerability of high, cumulative doses in asthmatic patients on maintenance treatment with the combination (double blind clinical comparison study)
Conditions: 10 puffs cumulative dose in addition to morning maintenance dose (2 puffs), assessed over 12 hours after dosing, vs placebo / comparator
Experimental: A study is performed to evaluate the tolerability of high, cumulative doses of the combination formoterol/beclometasone dipropionate or formoterol compared to a placebo when administered in asthmatic patients on regular treatment with the combination at the maximum recommended daily dose (6 microgram of formoterol/100 microgram beclometasone dipropionate, 2 puffs bid.: corresponding to a total daily dose of 24 microgram of formoterol and of 400 microgram of beclometasone dipropionate). The study is a double blind clinical comparison study of ten puffs of the pressurized metered dose inhaler solution formulation of the combination of Example 1 (formoterol 6 microgram+beclometasone dipropionate 100 microgram) or formoterol (6 microgram) or placebo during the maintenance treatment of asthma with 2 puffs bid. of the combination formoterol/beclometasone dipropionate of Example 1.
Cumulative doses (10 puffs) are administered on 3 separated days in addition to the morning dose maintenance (2 puffs). The primary endpoint is serum potassium, assessed over a 12 hours period after the cumulative doses.

With `COc1ccc(CC(C)NCC(O)c2ccc(O)c(NC=O)c2)cc1` (racemic) [Formoterol, (±) N-[2-hydroxy-5-(1-hydroxy-2-((2-(4-methoxyphenyl)-1-methylethyl)amino)ethyl)phenyl]formamide] the serum potassium level was “significantly greater decrease in serum potassium level than the combination or placebo” and the serum potassium level (listed as formoterol) was “significantly greater decrease in serum potassium level than the either the combination or the placebo”.
